From US7326731B2, “Muscarinic agonists” (Eli Lilly and Company, priority 2002, dated 2008)
Where two headings read alike, the source gives them in different places.

Tested on: Male Sprague-Dawley rats
Details: six-hour delay

## Nc1c2c(nc3ccccc13)CCCC2 [Tacrine, tacrine]
3 mg/kg s.c. immediately after the sampling phase
  retention in the eight arm radial maze: not
10 mg/kg s.c. immediately after the sampling phase
  retention in the eight arm radial maze: significantly improved retention
